# Patent publication US20160067272A1, “METHODS FOR TREATING IMMUNE DISEASES” (priority 2013, published 2016)
# What was measured:
# [1] = tested on: naïve CD4+ T cells; assay: Naïve CD4+ T cell differentiation under Th1 polarizing conditions (ELISA, flow cytometry); type: cell-based, mouse
# Protocol: (§1) The inventors next investigated whether NAD^− regulates CD4^+ T cell differentiation in Th1 polarizing conditions. Isolated naïve CD4^+ T cells were cultured with anti-CD3/CD28 antibodies in presence of recombinant IL-12 and IL-2 cytokines and anti-IL4 antibody. […] In contrast to Th0 polarizing conditions, NAD^+ induced a robust IL-10 secretion (>3500 pg/ml) in Th1 cytokine environment (FIG. 1A). Furthermore, pro-inflammatory cytokines such as TNF-α and IL-6 were reduced by NAD^+ (FIG. 7C). […] Furthermore, the study tested whether NAD^+ promoted the shift of human CD4^+ T helper cells in Th1 polarizing conditions towards IL-10 cytokine production. Human peripheral blood CD4^| T cells were activated with anti-CD3/CD28 antibodies under Th1 polarizing conditions (recombinant IL-12 and IL-2 cytokines and anti-IL4 antibody) with increasing concentrations of NAD+. After 96 hours of culture, CD4^+IL-10^+IFNγ^+ cell frequency was assessed by flow cytometry analysis.
# (§2) Single-cell leukocyte suspensions were obtained from spleens from 8-10 week old DBA mice and CD4^− T cells were isolated by negative selection using a CD4^+ T cell isolation kit (MILTENYI BIOTEC, Bergisch Gladbach, Germany). Cells were further sorted using α-CD4-PE (EBIOSCIENCE, San Diego, Calif.) and purities of CD4^+ T cells after isolation were >98%.
# (§3) All recombinant cytokines and antibodies were purchased from EBIOSCIENCE except recombinant TGF-β cytokine (R&D SYSTEMS, Minneapolis, Minn.). After 96 hrs of culture supernatants and cells were collected and analyzed by ELISA and flow cytometry, respectively.
# (§4) Fluorescently labeled anti-mouse α-CD4 (GK1.5), α-CD25 (PC61), α-IFN-γ (XMG1.2) and unlabeled α-CD16/CD32 (2.4G2) antibodies were obtained from BD BIOSCIENCES (San Jose, Calif.). Fluorescently labeled anti-mouse α-IL-4 (FJK-16s), α-IL-10 (JES5-16E3), α-IL-17A (eBio17B7), and anti-TGFβ (TW7-16B4) were obtained from eBIOSCIENCE (San Diego, Calif.). Intracellular staining for IL-4, IL-10, IL-17A, IFNγ and TGFβ was performed according to manufacturers' protocols. Splenocytes were re-stimulated in complete media (RPMI media containing 10% FCS, 1% L-Glutamine, 1% Penicillin/Streptomycin; all Bio Whittaker, Walkersville, Md.) for 4 hours at 37° C. with ionomycin, phorbol 12-myristate 13-acetate and Brefelding A (EBIOSCIENCE). Cells were fixed and permeabilized using CYTOFIX/CYTOPERM solution (BD BIOSCIENCES). Flow cytometry measurements of single-cell suspensions were performed on a FACSCalibur using standard procedures and data were analyzed using FLOWJO software (TREE STAR, Ashland, Oreg.).
# [2] = tested on: Fully MHC-mismatched tail skin allografts in mice; assay: Skin transplantation model; type: in vivo, mouse
# From the text: More importantly, in transplantation nTregs promote allograft survival while Th17 cells enhance allograft rejection^44-45. Thus, to study, in vivo, the impact of NAD^+ on nTregs and Th17 cells a transplant mouse model was used. Fully MHC-mismatched C57BL/6 (H2^b) tail skin allografts were transplanted onto DBA/2 (H2^d) mice that received daily intraperitoneally a solution containing NAD^+ or a placebo solution (PBS) and graft survival was monitored. […] Therefore, NAD^+ treatment was expected to promote allograft rejection. […] Recipient mice were evaluated by day 8 and the frequency of nTregs CD4^+CD25^+Foxp3^+ and CD4^+IL17-A^+ cells was assessed (FIG. 14B). […] Next, mechanisms by which NAD^+ could promote nTreg conversion into Th17 cells and allograft survival at the same time, e.g., two paradoxes, were assessed. Strikingly, when compared to the control group, more than 60% of CD4^+ T cells of NAD^+ treated mice were IL-10^+ producing cells (FIG. 14B). It is known that IL-10 is a robust immunosuppressive cytokine^46. Therefore, it was tested whether the allograft survival observed in recipient mice treated with NAD^| was the results of a systemic increase of IL-10 production. Thus, WT and IL-10^−/− mice (on a C57BL6/ background) received a BDA skin transplant and were treated with NAD^|.
# Full-thickness tail skin grafts (˜1 cm^2) were procured from C57BL/6 mice and engrafted onto the dorsolateral thoracic wall of DBA/2 recipient mice using interrupted 5-0 Vicryl sutures. NAD^+ (100 μl of a solution containing 10 mg in PBS), or PBS (100 μl) were injected intraperitoneally and grafts were covered with gauze and adhesive bandage for 5 days. Graft survival was then monitored daily and rejection was defined as graft necrosis of 100%. Two investigators blinded for the particular experimental groups assessed graft survival independently. Eight days after transplantation, single-cell leukocyte suspensions were obtained from spleens procured from recipient mice to perform re-stimulation (with PMA and Ionomycin for 2hrs) and staining for surface and intracellular antigens as described above.
# [3] = tested on: naïve CD4+ T cells; assay: Naïve CD4+ T cell differentiation under Th2 polarizing conditions; type: cell-based, mouse
# Protocol: Next, the effects of NAD^+ on activated CD4+ T cells were tested in Th2 polarizing conditions. […] In the absence of NAD^−, CD4^+ T cells cultured in Th2 cytokine environment barely produced IL-17A cytokine while in the presence of increasing concentrations of NAD^+, cultured cells produced large amounts (>2000 pg/ml) in a dose dependent manner (FIG. 2A). […] In contrast, production of the pro-inflammatory cytokine TNF-α was inhibited in the presence of NAD^− (FIG. 7D). […] Thus, these findings indicate that NAD^+ drives the switch from classical Th2/IL-10^+ toward Th2/IL-17A^+ producing cells.
# as §2, §3, §4
# [4] = tested on: Human peripheral blood CD4+ T cells; assay: Human CD4+ T cells under Th1 polarizing conditions (flow cytometry); type: cell-based; details: increasing NAD+
# Protocol: as §1, with “analysis. […]” for “analysis.”
# as §3
# [5] = recipient spleen, day 8, NAD+ vs placebo
smiles,measurement,setting,value
"NC(=O)c1ccc[n+]([C@@H]2O[C@H](COP(=O)([O-])OP(=O)(O)OC[C@H]3O[C@@H](n4cnc5c(N)ncnc54)[C@H](O)[C@@H]3O)[C@@H](O)[C@H]2O)c1 [NAD+, nicotinamide adenine dinucleotide]",IFN-γ cytokine production,"[1]; 96 hrs, ELISA",did not change
same,IL-6 production,"[1]; 96 hrs, ELISA",reduced
same,IL-10 secretion,"[1]; 96 hrs, ELISA",> 3500 pg/mL
same,IL-17A cytokine production,"[1]; 96 hrs, ELISA",400 pg/mL
same,TNF-α production,"[1]; 96 hrs, ELISA",reduced
same,IL-10 production by Th1-IFN-γ producing cells,[1]; flow cytometry,promoted
same,frequency of CD4+IFN-γ cells,[1]; flow cytometry,increased frequencies
same,frequency of CD4+IL17A+ cells,[1]; flow cytometry,increased frequencies
same,frequency of CD4+IL-10+ cells,[1]; flow cytometry,increased frequencies
same,visual sign of rejection,"[2]; 13 days after transplantation, daily NAD+",no visual sign of rejection
same,allografts survived more than 18 days,"[2]; C57BL/6 skin onto DBA/2 mice, daily i.p. NAD+",66%
same,skin allograft survival,"[2]; C57BL/6 skin onto DBA/2 mice, daily i.p. NAD+ vs control group",dramatic allograft survival
same,skin allograft survival in IL-10−/− mice,"[2]; DBA skin onto IL-10−/− mice (C57BL/6 background), NAD+ treatment",abolished the allograft survival
same,frequencies of CD4+IL-17A+ cells,[2]; [5],increased frequencies
same,frequency of CD4+CD25+Foxp3+ nTregs,[2]; [5],reduced frequency
same,IL-4 cytokine production,"[3]; 96 hrs, ELISA",did not affect
same,IL-10 cytokine production,"[3]; 96 hrs, ELISA",reduced
same,IL-13 cytokine production,[3]; ELISA,did not affect
same,TNF-α production,[3]; ELISA,inhibited
same,CD4+IL10+ cell frequency,[3]; flow cytometry,decreased number
same,CD4+IL17A+ cells,[3]; flow cytometry,increased number
same,CD4+IL-4+ cell frequency,[3]; flow cytometry,no changes
same,IL-17A secretion,"[3]; increasing NAD+, dose dependent, ELISA",> 2000 pg/mL
same,IL-17A,[4],moderate increase
same,IL-10 cytokine production by CD4+IFN-γ producing cells,[4]; flow cytometry,robust IL-10 cytokine production
